Here are results for 21 molecules from patent US6291432A (Japan Energy Corporation, priority 1996, dated 2001).

The assay deals with T1, recombinant HIV-1 protease (Human immunodeficiency virus type 1 group M subtype B, UniProt P04585).
T1 construct: measured using a recombinant HIV-1 protease
As to the kind of experiment: HIV protease inhibition activity (enzyme activity inhibition rate). Format: biochemical. Conditions: 50 nM final concentration of test compound, 60 min at 37° C.; for inhibition at 0.05 µM: read-out: Enzyme activity inhibition rate (%) (addition concentration of 50 nM). The procedure: The protease activity was measured using a recombinant HIV-1 protease (see Biochemistry, 250 (9)-264 (1990)) and a synthesized peptide substrate. The inhibition rate was calculated by determining a peptide fragment generated by cleavage between Tyr-Pro of the synthesized substrate after the reaction of 60 min at 37° C. using a reversed phase HPLC in the presence of the test compounds in various concentrations (see, for example, Japanese Patent Application Laid-open No. 170722/1993).
Examples of the evaluation results of the HIV protease inhibition activity of the tripeptide compound of the present invention by the above-described method is shown in Table 1. […] The concentration of the test compounds in Table 1 represents the final concentration in the reaction mixture.

Turning to `Cc1ccccc1CNC(=O)[C@@H]1CSCN1C(=O)[C@@H](O)[C@H](Cc1ccccc1)NC(=O)[C@H](CC(N)=O)NC(=O)OCc1ccccc1` [Example 2, (R)-N-(2-methylbenzyl)-3-{(2S,3S)-3-[N-(benzyloxycarbonyl)-L-asparaginyl]amino-2-hydroxy-4-phenylbutanoyl}-1,3-thiazolidine-4-carboxamide], the inhibition at 0.05 µM turned out to be 71.7%.
As for `Cc1ccccc1CNC(=O)[C@H]1N(C(=O)[C@@H](O)[C@H](Cc2ccccc2)NC(=O)[C@@H](NC(=O)OCc2ccccc2)C(C)C)CSC1(C)C` [Example 4, (R)-N-(2-methylbenzyl)-3-{(2S,3S)-3-[N-(benzyloxycarbonyl)-L-valyl]amino-2-hydroxy-4-phenylbutanoyl}-5,5-dimethyl-1,3-thiazolidine-4-carboxamide], the inhibition at 0.05 µM came to 95.3%.
On the same count and under the same terms, next, `CC1(C)SCN(C(=O)[C@@H](O)[C@H](Cc2ccccc2)NC(=O)[C@H](CC(N)=O)NC(=O)OCc2ccccc2)[C@@H]1C(=O)NCc1ccccc1Cl` [Example 5, (R)-N-(2-chlorobenzyl)-3-{(2S,3S)-3-[N-(benzyloxycarbonyl)-L-asparaginyl]amino-2-hydroxy-4-phenylbutanoyl}-5,5-dimethyl-1,3-thiazolidine-4-carboxamide]: 98.4%; `Cc1ccccc1CNC(=O)[C@H]1N(C(=O)[C@@H](O)[C@H](Cc2ccccc2)NC(=O)[C@@H](NC(=O)COc2cccc3cnccc23)C(C)C)CSC1(C)C` [Example 8, (R)-N-(2-methylbenzyl)-3-{(2S,3S)-3-[N-(5-isoquinolinyloxyacetyl)-L-valyl]amino-2-hydroxy-4-phenylbutanoyl}-5,5-dimethyl-1,3-thiazolidine-4-carboxamide]: 97.7%; `Cc1ccccc1CNC(=O)[C@@H]1[C@@H](C)OCN1C(=O)[C@@H](O)[C@H](Cc1ccccc1)NC(=O)[C@H](CC(N)=O)NC(=O)OCc1ccccc1` [Example 9, (4S,5R)-N-(2-methylbenzyl)-3-{(2S,3S)-3-[N-(benzyloxycarbonyl)-L-asparaginyl]amino-2-hydroxy-4-phenylbutanoyl}-5-methyl-1,3-oxazolidine-4-carboxamide]: 61.9%.
Same read-out and setting: for `Cc1ccccc1CNC(=O)[C@H]1N(C(=O)[C@@H](O)[C@H](Cc2ccccc2)NC(=O)[C@@H](NC(=O)c2cc3ccccc3o2)C(C)C)CSC1(C)C` [Example 11, (R)-N-(2-methylbenzyl)-3-{(2S,3S)-3-[N-(2-benzofurancarbonyl)-L-valyl]amino-2-hydroxy-4-phenylbutanoyl}-5,5-dimethyl-1,3-thiazolidine-4-carboxamide] the value was 97.1%.
With `Cc1ccccc1CNC(=O)[C@H]1N(C(=O)[C@@H](O)[C@H](Cc2ccccc2)NC(=O)[C@@H](NC(=O)c2cc(=O)c3ccccc3o2)C(C)C)CSC1(C)C` [Example 12, (R)-N-(2-methylbenzyl)-3-{(2S,3S)-3-[N-(2-chromonecarbonyl)-L-valyl]amino-2-hydroxy-4-phenylbutanoyl}-5,5-dimethyl-1,3-thiazolidine-4-carboxamide], the “Enzyme activity inhibition rate (%) (addition concentration of 50 nM)” value was 97.4%.
For the molecule `Cc1ccccc1CNC(=O)[C@H]1N(C(=O)[C@@H](O)[C@H](Cc2ccccc2)NC(=O)[C@@H](NC(=O)c2ccc3ccccc3n2)C(C)C)CSC1(C)C` [Example 13, (R)-N-(2-methylbenzyl)-3-{(2S,3S)-3-[N-(2-quinolinecarbonyl)-L-valyl]amino-2-hydroxy-4-phenylbutanoyl}-5,5-dimethyl-1,3-thiazolidine-4-carboxamide], the inhibition at 0.05 µM came to 96.6%.
Same read-out and setting: next, `Cc1ccccc1CNC(=O)[C@H]1N(C(=O)[C@@H](O)[C@H](Cc2ccccc2)NC(=O)[C@@H](NC(=O)c2nc3ccccc3s2)C(C)C)CSC1(C)C` [Example 14, (R)-N-(2-methylbenzyl)-3-{(2S,3S)-3-[N-(2-benzothiazolecarbonyl)-L-valyl]amino-2-hydroxy-4-phenylbutanoyl}-5,5-dimethyl-1,3-thiazolidine-4-carboxamide]: 95.8%; `Cc1ccccc1CNC(=O)[C@H]1N(C(=O)[C@@H](O)[C@H](Cc2ccccc2)NC(=O)[C@@H](NC(=O)c2nc3ccccc3[nH]2)C(C)C)CSC1(C)C` [Example 15, (R)-N-(2-methylbenzyl)-3-{(2S,3S)-3-[N-(2-benzimidazolecarbonyl)-L-valyl]amino-2-hydroxy-4-phenylbutanoyl}-5,5-dimethyl-1,3-thiazolidine-4-carboxamide]: 92.8%.
On the same count and under the same terms, next, `Cc1ccccc1CNC(=O)[C@H]1N(C(=O)[C@@H](O)[C@H](Cc2ccccc2)NC(=O)[C@H](CC(N)=O)NC(=O)c2cnc3ccccc3n2)CSC1(C)C` [Example 18, (R)-N-(2-methylbenzyl)-3-{(2S,3S)-3-[N-(2-quinoxalinecarbonyl)-L-asparaginyl]amino-2-hydroxy-4-phenylbutanoyl}-5,5-dimethyl-1,3-thiazolidine-4-carboxamide]: 98.8%; `Cc1ccccc1CNC(=O)[C@H]1N(C(=O)[C@@H](O)[C@H](Cc2ccccc2)NC(=O)[C@@H](NC(=O)c2cnc3ccccc3n2)C(C)C)CSC1(C)C` [Example 19, (R)-N-(2-methylbenzyl)-3-{(2S,3S)-3-[N-(2-quinoxalinecarbonyl)-L-valyl]amino-2-hydroxy-4-phenylbutanoyl}-5,5-dimethyl-1,3-thiazolidine-4-carboxamide]: 97.3%.
On the same count and under the same terms, next, `COc1cccc2cc(C(=O)N[C@@H](C)C(=O)N[C@@H](Cc3ccccc3)[C@H](O)C(=O)N3CSC(C)(C)[C@H]3C(=O)NCc3ccccc3C)oc12` [Example 20, (R)-N-(2-methylbenzyl)-3-{(2S,3S)-2-hydroxy-3-[(S)-2-(7-methoxy-2-benzofurancarbonyl)aminopropanoyl]amino-4-phenylbutanoyl}-5,5-dimethyl-1,3-thiazolidine-4-carboxamide]: 97.6%; `Cc1ccccc1CNC(=O)[C@H]1N(C(=O)[C@@H](O)[C@H](Cc2ccccc2)NC(=O)[C@@H](NC(=O)c2cnc3ccccc3c2)C(C)C)CSC1(C)C` [Example 21, (R)-N-(2-methylbenzyl)-3-{(2S,3S)-2-hydroxy-3-[(S)-2-(3-quinolinecarbonyl)amino-3-methylbutanoyl]amino-4-phenylbutanoyl}-5,5-dimethyl-1,3-thiazolidine-4-carboxamide]: 97.7%; `Cc1ccccc1CNC(=O)[C@H]1N(C(=O)[C@@H](O)[C@H](Cc2ccccc2)NC(=O)[C@@H](NC(=O)COc2cccc(N(C)C)c2)C(C)C)CSC1(C)C` [Example 22, (R)-N-(2-methylbenzyl)-3-{(2S,3S)-2-hydroxy-3-[(S)-2-(3-dimethylaminophenoxyacetyl)amino-3-methylbutanoyl]amino-4-phenylbutanoyl}-5,5-dimethyl-1,3-thi azolidine-4-carboxamide]: 97.6%.
Take `Cc1ccccc1CNC(=O)[C@H]1N(C(=O)[C@@H](O)[C@H](Cc2ccccc2)NC(=O)[C@@H](NC(=O)COc2cccc3ncccc23)C(C)C)CSC1(C)C` [Example 23, (R)-N-(2-methylbenzyl)-3-{(2S,3S)-2-hydroxy-3-[(S)-2-(5-quinolinyloxyacetyl)amino-3-methylbutanoyl]amino-4-phenylbutanoyl}-5,5-dimethyl-1,3-thiazolidine-4-carboxamide]: the inhibition at 0.05 µM was 98.5%.
As to `CC[C@H](NC(=O)COc1ccc2ncccc2c1)C(=O)N[C@@H](Cc1ccccc1)[C@H](O)C(=O)N1CSC(C)(C)[C@H]1C(=O)NCc1ccccc1C` [Example 24, (R)-N-(2-methylbenzyl)-3-{(2S,3S)-2-hydroxy-3-[(S)-2-(6-quinolinyloxyacetyl)aminobutanoyl]amino-4-phenylbutanoyl}-5,5-dimethyl-1-thiazolidine-4-carbox amide], the “Enzyme activity inhibition rate (%) (addition concentration of 50 nM)” value is 98.1%.
Still for that read-out and setting: for `CC[C@H](NC(=O)COc1cccc(N(C)C)c1)C(=O)N[C@@H](Cc1ccccc1)[C@H](O)C(=O)N1CSC(C)(C)[C@H]1C(=O)NCc1ccccc1C` [Example 25, (R)-N-(2-methylbenzyl)-3-{(2S,3S)-2-hydroxy-3-[(S)-2-(3-dimethylaminophenoxyacetyl)aminobutanoyl]amino-4-phenylbutanoyl}-5,5-dimethyl-1-thiazolidine-4-carboxamide] the value was 99.9%.
`Cc1ccccc1CNC(=O)[C@H]1N(C(=O)[C@@H](O)[C@H](Cc2ccccc2)NC(=O)[C@H](C)NC(=O)COc2cccc(N(C)C)c2)CSC1(C)C` [Example 26, (R)-N-(2-methylbenzyl)-3-{(2S,3S)-2-hydroxy-3-[(S)-2-(3-dimethylaminophenoxyacetyl)aminopropanoyl]amino-4-phenylbutanoyl}-5,5-dimethyl-1,3-thiazolidine-4-carboxamide]: the inhibition at 0.05 µM was 99.9%.
On the same count and under the same terms, next, `CCOC(=O)N[C@H](C(=O)N[C@@H](Cc1ccccc1)[C@H](O)C(=O)N1CSC(C)(C)[C@H]1C(=O)NCc1ccccc1C)C(C)C` [Example 29, (R)-N-(2-methylbenzyl)-3-{(2S,3S)-2-hydroxy-3-[(S)-2-(ethoxycarbonyl)amino-3-methylbutanoyl]amino-4-phenylbutanoyl}-5,5-dimethyl-1,3-thiazolidine-4-ca rboxamide]: 93%; `COCCOC(=O)N[C@H](C(=O)N[C@@H](Cc1ccccc1)[C@H](O)C(=O)N1CSC(C)(C)[C@H]1C(=O)NCc1ccccc1C)C(C)C` [Example 30, (R)-N-(2-methylbenzyl)-3-{(2S,3S)-2-hydroxy-3-[(S)-2-(methoxyethoxycarbonyl)amino-3-methylbutanoyl]amino-4-phenylbutanoyl}-5,5-dimethyl-1,3-thiazolidine-4-carboxamide]: 94.2%.
